Test results from patent US7220784B2, “Substituted stilbenes and their reactions” (priority 2000, dated 2007).

Columns and labels:
[1] = test system: liver metastatic T50:80 tumours; experiment: Anti-vascular effects, histological examination of T50:80 tumours; type: in vivo, mice
Method: (2) Competition for the colchicine binding site on tubulin. The figure quoted represents the % of ^3H-colchicine bound following co-incubation of test compound and ^3H-cochicine with isolated tubulin. Where ester pro-drugs were used the experiments were carried out in the presence and absence of porcine liver esterase. • (3) Cytotoxicity/growth inhibition assay. This was carried out by the MTT assay. • (4) Permeability (shape-change) assay in endothelial cells. This was carried out using a method based on that of Watts et al. (Anticancer Res., 17, 71–75, (1997)). This involved the diffusion of a fluorescently labelled dextran through a barrier of endothelial cells (HUVEC) grown to confluence on a porous membrane. […] The anti-vascular effects of the agents were monitored by either positron emission tomography (PET) or by histologogical examination following treatment of mice bearing T50:80 murine breast tumours, or H460 human lung tumours. • (6) Anti-tumour efficacy of agents was determined in xenografts of H460 human lung cancer. Animals (n=5) were trated either with 5 daily injections and tumour size measured with time following treatment. • (7) The pharmacokinetic profile of agents was determined in mice following injection with drug. Blood was taken at various times following treatment and analysed by HPLC with UV detection. […]

[2] = test system: P388 murine leukaemia cell line; experiment: Cytotoxicity/growth inhibition assay (MTT), P388; type: cell-based; conditions: MTT
Method in brief: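 Growth inhibition of P388 murine and K562 human leukaemia cells measured by MTT assay.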

## COc1ccc(C=Cc2cc(OC)c(OC)c(OC)c2)cc1F [Compound 97-64H]
[1]; 2/3 or 3/4 of MTD, 2 hr, 4 hr, 24 hr, 48 hr after administration
  examination of tumours for vascular damage: tumour necrosis, blocked vessels, infiltration with red blood cells
[1]; mouse, in vivo
  time by which vascular effects are seen: ≤ 2 h
[2]
  IC50: 0.489 nM
